Test results reported in paper PMC7277387, “Tailoring Uptake Efficacy of HSV-1 gD Tailoring Uptake Efficacy of Hsv-1 GD Derived Carrier Peptides” (Biomolecules, 2020).

Assays:
[1] = assay type: physicochemical; details: 1 mg/mL in serum-free DMEM, 37 °C, samples at 0, 3, 6 and 24 h, RP-HPLC C18, A220
Description: Before the cellular uptake studies the stability of the Cf-labelled synthetic peptides was determined. Peptides were dissolved at 1 mg/mL concentration in serum-free DMEM medium (Lonza, Basel, Switzerland), and incubated at 37 °C for 24 h. Samples for RP-HPLC (Knauer, Berlin, Germany) were taken at 0, 3, 6 and 24 h. Phenomenex Luna C18 column (5 μm, 300 Å, 4.6 mm × 250 mm) (Gen-Lab Ltd., Budapest, Hungary) was applied with a gradient of 0–5 min 5% B eluent elevated to 55% B during 25 min, where eluent A: 0.1% TFA/water, eluent B: 0.1% TFA/acetonitrile–water 80:20 (v/v).
Figure S12. Stability study of (a) Cf-(236-255) and (b) Cf-(228-247), dissolved in DMEM serum free medium and incubated at 37 °C, followed by RP-HPLC. Samples for RP-HPLC (Knauer, Berlin, Germany) were taken at 0, 3, 6 and 24 hrs. Phenomenex Luna C18 column (5 μm, 300 Å, 4.6 mm × 250 mm) was applied with a gradient of 0-5 min 5% eluent B elevated to 55% B during 25 min, where eluent A: 0.1% TFA / water, eluent B: 0.1% TFA / acetonitrile –water 80:20 (v/v). Control: DMEM serum free medium. In case of Cf-(236-255) evaporation during the incubation caused increasing peptide peaks. Both peptides contain oxidation sensitive Trp residue. Cf -(236-255) was stable even after 24 h, the rising intensity of the peak representing the peptide is due to evap oration during the […]
to be stable during this interval. […]

[2] = system: SH-SY5Y neuroblastoma cells; test: Cellular uptake of Cf-labelled peptides by flow cytometry; details: for cellular uptake (in words): Figure S19
[3] = Secondary structure of acetylated peptides by far-UV ECD spectroscopy; assay type: physicochemical; details: acetylated peptide; for α-helix fraction (PEPFIT): far-UV ECD, PEPFIT fit
Description: ECD spectra of acetylated HSV peptides were recorded using a Jasco J-810 and Jasco J-715 spectropolarimeter (Jasco Corporation, Tokyo, Japan) in the λ = 180–270 nm wavelength range using a 0.02 or a 0.1 cm path length quartz cell at room temperature, under constant nitrogen flush with continuous scanning mode. All spectra reported here were obtained as an average of three or five individual scans and corrected with the solvent ECD spectra. The J-810 equipment was calibrated with ammonium α-10-camphor-sulfonate. The samples were dissolved in trifluoroethanol (TFE) (Sigma), distilled water and a 1:1 (v/v) mixture of TFE:water. The solution concentration was in the range of 0.5–0.7 mg/mL (J-810) or ~0.14 mg/mL (J-715) for peptide amides. ECD band intensities are expressed in mean residual molar ellipticity unit. The percentage of the different conformational elements contributing to the ECD spectra was calculated by the MS Excel version of the PEPFIT program developed originally by Reed and Reed. The algorithm estimates the percentage of secondary contents by fitting experimental ECD data to the combination of reference spectra. The best fit is defined by the R^2 value, where an R^2 = 1 corresponds to a perfect match.
The helical content of the peptides in different solvents was also estimated employing the simple equation formulated by Chen and Yang: fH = -([Θ]222 + 2340)/30,300 where fH the fraction of helix and [Θ]222 is the measured mean residual ellipticity at 222 nm. It seems that the helical fractions obtained correlate favourably with the results of the curve fitting procedure (Table 2). […]

Which “stability of the intact peptide” value [1] does the source give for `CC[C@H](C)[C@H](NC(=O)[C@H](CCCCN)NC(=O)[C@H](CC(C)C)NC(=O)[C@H](CO)NC(=O)[C@H](Cc1ccc(O)cc1)NC(=O)[C@@H](NC(=O)[C@H](C)NC(=O)[C@@H](NC(=O)[C@@H](NC(=O)[C@H](CCCNC(=N)N)NC(=O)[C@H](CCC(N)=O)NC(=O)c1ccc2c(c1)C(=O)OC21c2ccc(O)cc2Oc2cc(O)ccc21)[C@@H](C)O)C(C)C)C(C)C)C(=O)N[C@@H](C)C(=O)NCC(=O)N[C@@H](Cc1c[nH]c2ccccc12)C(=O)N[C@@H](Cc1c[nH]cn1)C(=O)NCC(=O)N1CCC[C@H]1C(=O)N[C@@H](CCCCN)C(=O)N[C@@H](C)C(=O)N1CCC[C@H]1C(N)=O` [Cf-(228–247)] here?
Its value is “decreased intensity of the intact peptide”.

For `CC[C@H](C)[C@H](NC(=O)[C@H](CCCCN)NC(=O)[C@H](CC(C)C)NC(=O)c1ccc2c(c1)C(=O)OC21c2ccc(O)cc2Oc2cc(O)ccc21)C(=O)N[C@@H](C)C(=O)NCC(=O)N[C@@H](Cc1c[nH]c2ccccc12)C(=O)N[C@@H](Cc1c[nH]cn1)C(=O)NCC(=O)N1CCC[C@H]1C(=O)N[C@@H](CCCCN)C(=O)N[C@@H](C)C(=O)N1CCC[C@H]1C(=O)N[C@@H](Cc1ccc(O)cc1)C(=O)N[C@H](C(=O)N[C@@H](CO)C(=O)N[C@H](C(=O)N[C@@H](CC(C)C)C(=O)N[C@@H](CC(C)C)C(=O)N1CCC[C@H]1C(=O)N1CCC[C@H]1C(N)=O)[C@@H](C)O)[C@@H](C)O` [Cf-(236–255)], which “stability of the intact peptide” value [1] is on record?
The value was “stable even”.

Which “cellular uptake (in words)” value ([2]; c = 10 µM, compared with Cf-HSV peptides) does the source give for Cf-TKPKGTKPKG [OT10] here?
Its value is “did not reach the level of internalisation of HSV peptides even with moderate uptake level”.

What about the “cellular uptake (in words)” value ([2]; c = 50 µM) of the same compound?
Its value is “effective cellular uptake, though not reaching 100%”.

Which “percentage of Cf-positive live cells” value ([2]; c = 2 μM, 3 h) does the source give for “Cf-^219M*LPRFIPENQRTVAVYSLKI^238 [Cf-(219–238)]” here?
Its value is 15–20%.

For “^-1 GKYALADASLKMADPNRF^19 [acetylated HSV-1 gD -1–19 peptide amide for ECD]”, which “disordered fraction (PEPFIT)” value ([3]; H2O) is on record?
The value was 64%.

What about the “turn fraction (PEPFIT)” value ([3]; H2O) of the same compound?
The value was 24%.

And the “β-sheet fraction (PEPFIT)” value ([3]; H2O)?
The value was 4%.

And the “α-helix fraction (PEPFIT)” value ([3]; H2O, room temperature)?
Its value is 8%.

And the “disordered fraction (PEPFIT)” value ([3]; H2O:TFE 1:1 (v/v))?
The value was 10%.

And the “turn fraction (PEPFIT)” value ([3]; H2O:TFE 1:1 (v/v))?
The value was 40%.

What about the “β-sheet fraction (PEPFIT)” value ([3]; H2O:TFE 1:1 (v/v)) of the same compound?
The value was 0%.

What about the “α-helix fraction (PEPFIT)” value ([3]; H2O:TFE 1:1 (v/v)) of the same compound?
The value was 50%.

And the “disordered fraction (PEPFIT)” value ([3]; TFE)?
Its value is 0%.

And the “turn fraction (PEPFIT)” value ([3]; TFE)?
The value was 30%.

And the “β-sheet fraction (PEPFIT)” value ([3]; TFE)?
Its value is 0%.

What about the “α-helix fraction (PEPFIT)” value ([3]; TFE) of the same compound?
Its value is 70%.
